{
  "source": "patent US9102688B2",
  "about": "“Sulfonaminoquinoline hepcidin antagonists” (Vifor (International) AG, priority 2011, dated 2015)",
  "data": [
    {"target": "T1, human ferroportin (Homo sapiens, UniProt Q9NP59)", "T1 construct": "expressed in transfected cells", "T1 sequence (Q9NP59 1-571)": "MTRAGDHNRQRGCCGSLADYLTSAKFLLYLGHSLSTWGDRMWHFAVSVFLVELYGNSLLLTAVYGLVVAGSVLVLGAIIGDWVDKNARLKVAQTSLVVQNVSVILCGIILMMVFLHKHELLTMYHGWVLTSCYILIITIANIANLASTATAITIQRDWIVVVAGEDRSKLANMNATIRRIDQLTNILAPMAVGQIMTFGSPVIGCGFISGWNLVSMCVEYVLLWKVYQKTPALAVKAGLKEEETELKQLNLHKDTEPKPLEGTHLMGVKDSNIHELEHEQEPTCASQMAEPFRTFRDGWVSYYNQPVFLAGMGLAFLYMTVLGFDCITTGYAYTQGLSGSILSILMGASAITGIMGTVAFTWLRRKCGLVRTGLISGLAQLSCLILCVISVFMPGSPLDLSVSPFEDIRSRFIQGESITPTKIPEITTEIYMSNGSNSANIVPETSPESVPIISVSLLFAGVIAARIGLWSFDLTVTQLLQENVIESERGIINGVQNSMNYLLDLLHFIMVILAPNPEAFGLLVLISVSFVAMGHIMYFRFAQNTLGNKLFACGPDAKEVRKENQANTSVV", "assay": "ferroportin internalization assay (inhibition of hepcidin-induced internalization of Fpn)", "assay_type": "cell-based", "settings": "MDCK-FPN-HaloTag cells, 100 nM hepcidin, overnight incubation; concentration range from 0.04 to 40 μM", "in_short": "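MDCK cells stably expressing human ferroportin–HaloTag were labelled with TMR ligand, then incubated overnight at 37 °C with compound plus 100 nM hepcidin (final). After fixation and nuclear staining, confocal imaging quantified membrane Fpn fluorescence to measure blocking of hepcidin-induced internalization.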", "units": {"IC50": "nM"}, "values": [
      {"compound": "Cc1ccc(C2c3ccc4cccnc4c3NS(=O)(=O)N2C)cc1", "note": "(centres unmarked) [Example 383, 2-Methyl-1-p-tolyl-1,4-dihydro-2H-3-thia-2,4,5-triaza-phenanthrene 3,3-dioxide]", "IC50": 600},
      {"compound": "COc1ccccc1C1c2ccc3cccnc3c2NS(=O)(=O)N1C", "note": "(centres unmarked) [Example 384, 1-(2-Methoxy-phenyl)-2-methyl-1,4-dihydro-2H-3-thia-2,4,5-triaza-phenanthrene 3,3-dioxide]", "IC50": 1870},
      {"compound": "CN1C(c2ccc(C(F)(F)F)cc2)c2ccc3cccnc3c2NS1(=O)=O", "note": "(centres unmarked) [Example 385, 2-Methyl-1-(4-trifluoromethyl-phenyl)-1,4-dihydro-2H-3-thia-2,4,5-triaza-phenanthrene 3,3-dioxide]", "IC50": 1370},
      {"compound": "CN1C(c2ccc(C(F)(F)F)nc2)c2ccc3cccnc3c2NS1(=O)=O", "note": "(centres unmarked) [Example 386, 2-Methyl-1-(6-trifluoromethyl-pyridin-3-yl)-1,4-dihydro-2H-3-thia-2,4,5-triaza-phenanthrene 3,3-dioxide]", "IC50": 960},
      {"compound": "CN1C(c2ccncc2F)c2ccc3cccnc3c2NS1(=O)=O", "note": "(centres unmarked) [Example 387, 1-(3-Fluoro-pyridin-4-yl)-2-methyl-1,4-dihydro-2H-3-thia-2,4,5-triaza-phenanthrene 3,3-dioxide]", "IC50": 1600},
      {"compound": "CN1C(c2ccc(F)cn2)c2ccc3cccnc3c2NS1(=O)=O", "note": "(centres unmarked) [Example 388, 1-(5-Fluoro-pyridin-2-yl)-2-methyl-1,4-dihydro-2H-3-thia-2,4,5-triaza-phenanthrene 3,3-dioxide]", "IC50": 1570},
      {"compound": "CN1C(c2cccc(F)c2)c2ccc3cccnc3c2NS1(=O)=O", "note": "(centres unmarked) [Example 389, 1-(3-Fluoro-phenyl)-2-methyl-1,4-dihydro-2H-3-thia-2,4,5-triaza-phenanthrene 3,3-dioxide]", "IC50": 720},
      {"compound": "COc1ccc(C2c3ccc4cccnc4c3NS(=O)(=O)N2C)cc1", "note": "(centres unmarked) [Example 390, 1-(4-Methoxy-phenyl)-2-methyl-1,4-dihydro-2H-3-thia-2,4,5-triaza-phenanthrene 3,3-dioxide]", "IC50": 2240},
      {"compound": "CN1C(c2ccc(F)c(Cl)c2)c2ccc3cccnc3c2NS1(=O)=O", "note": "(centres unmarked) [Example 391, 1-(3-Chloro-4-fluoro-phenyl)-2-methyl-1,4-dihydro-2H-3-thia-2,4,5-triaza-phenanthrene 3,3-dioxide]", "IC50": 3700},
      {"compound": "CN1C(c2ccc(F)c(F)c2)c2ccc3cccnc3c2NS1(=O)=O", "note": "(centres unmarked) [Example 392, 1-(3,4-Difluoro-phenyl)-2-methyl-1,4-dihydro-2H-3-thia-2,4,5-triaza-phenanthrene 3,3-dioxide]", "IC50": 250},
      {"compound": "CN1C(c2ccc(OC(F)(F)F)cc2)c2ccc3cccnc3c2NS1(=O)=O", "note": "(centres unmarked) [Example 393, 2-Methyl-1-(4-trifluoromethoxy-phenyl)-1,4-dihydro-2H-3-thia-2,4,5-triaza-phenanthrene 3,3-dioxide]", "IC50": 1150},
      {"compound": "COc1ccc(C2c3ccc4cccnc4c3NS(=O)(=O)N2C)c(OC)c1", "note": "(centres unmarked) [Example 394, 1-(2,4-Dimethoxy-phenyl)-2-methyl-1,4-dihydro-2H-3-thia-2,4,5-triaza-phenanthrene 3,3-dioxide]", "IC50": 1070},
      {"compound": "Cc1cc(F)ccc1C1c2ccc3cccnc3c2NS(=O)(=O)N1C", "note": "(centres unmarked) [Example 395, 1-(4-Fluoro-2-methyl-phenyl)-2-methyl-1,4-dihydro-2H-3-thia-2,4,5-triaza-phenanthrene 3,3-dioxide]", "IC50": 1500},
      {"compound": "COc1ccc(C2c3ccc4cccnc4c3NS(=O)(=O)N2C)cc1F", "note": "(centres unmarked) [Example 396, 1-(3-Fluoro-4-methoxy-phenyl)-2-methyl-1,4-dihydro-2H-3-thia-2,4,5-triaza-phenanthrene 3,3-dioxide]", "IC50": 1480},
      {"compound": "O=S1(=O)Nc2c(ccc3cccnc23)C(c2ccc(F)cc2)N1", "note": "(centres unmarked) [Example 398, 1-(4-Fluoro-phenyl)-1,4-dihydro-2H-3-thia-2,4,5-triaza-phenanthrene 3,3-dioxide]", "IC50": 2780},
      {"compound": "CN1C(c2ccc(F)cc2)c2cc(Cl)c3cccnc3c2NS1(=O)=O", "note": "(centres unmarked) [Example 401, 9-Chloro-1-(4-fluoro-phenyl)-2-methyl-1,4-dihydro-2H-3-thia-2,4,5-triaza-phenanthrene 3,3-dioxide]", "IC50": 12500},
      {"compound": "CC(=O)c1cc2c(c3ncccc13)NS(=O)(=O)N(C)C2c1ccc(F)cc1", "note": "(centres unmarked) [Example 402, 1-[1-(4-Fluoro-phenyl)-2-methyl-3,3-dioxo-1,2,3,4-tetrahydro-3λ*6*-thia-2,4,5-triaza-phenanthren-9-yl]-ethanone]", "IC50": 250},
      {"compound": "CC(O)c1cc2c(c3ncccc13)NS(=O)(=O)N(C)C2c1ccc(F)cc1", "note": "(centres unmarked) [Example 403, 1-[1-(4-Fluoro-phenyl)-2-methyl-3,3-dioxo-1,2,3,4-tetrahydro-3λ*6*-thia-2,4,5-triaza-phenanthren-9-yl]-ethanol]", "IC50": 2370},
      {"compound": "CN1Cc2ccc3cccnc3c2NS1(=O)=O", "note": "[Example 405, 2-Methyl-1,4-dihydro-2H-3-thia-2,4,5-triaza-phenanthrene 3,3-dioxide]", "IC50": 6500},
      {"compound": "CCC1c2ccc3cccnc3c2NS(=O)(=O)N1C", "note": "(centres unmarked) [Example 412, 1-Ethyl-2-methyl-1,4-dihydro-2H-3-thia-2,4,5-triaza-phenanthrene 3,3-dioxide]", "IC50": 2220},
      {"compound": "CC1c2ccc3cccnc3c2NS(=O)(=O)N1C", "note": "(centres unmarked) [Example 413, 1,2-Dimethyl-1,4-dihydro-2H-3-thia-2,4,5-triaza-phenanthrene 3,3-dioxide]", "IC50": 4690},
      {"compound": "CN1C(c2ccc(F)c(C(=O)O)c2)c2ccc3cccnc3c2NS1(=O)=O", "note": "(centres unmarked) [Example 424, 2-Fluoro-5-(2-methyl-3,3-dioxo-1,2,3,4-tetrahydro-3λ*6*-thia-2,4,5-triaza-phenanthren-1-yl)-benzoic acid]", "IC50": 5430},
      {"compound": "CN(C)CCNCc1cc(C2c3ccc4cccnc4c3NS(=O)(=O)N2C)ccc1F", "note": "(centres unmarked) [Example 425, N′-[2-Fluoro-5-(2-methyl-3,3-dioxo-1,2,3,4-tetrahydro-3λ*6*-thia-2,4,5-triaza-phenanthren-1-yl)-benzyl]-N,N-dimethyl-ethane-1,2-diamine]", "IC50": 7410},
      {"compound": "CN1C(c2ccc(F)c(CNCCN3CCOCC3)c2)c2ccc3cccnc3c2NS1(=O)=O", "note": "(centres unmarked) [Example 426, [2-Fluoro-5-(2-methyl-3,3-dioxo-1,2,3,4-tetrahydro-3λ*6*-thia-2,4,5-triaza-phenanthren-1-yl)-benzyl]-(2-morpholin-4-yl-ethyl)-amine]", "IC50": 8560},
      {"compound": "CN1C(c2ccc(F)c(CN3CCNCC3)c2)c2ccc3cccnc3c2NS1(=O)=O", "note": "(centres unmarked) [Example 427, 1-(4-Fluoro-3-piperazin-1-ylmethyl-phenyl)-2-methyl-1,4-dihydro-2H-3-thia-2,4,5-triaza-phenanthrene 3,3-dioxide]", "IC50": 4490},
      {"compound": "CN1C(c2ccc(F)c(C(=O)N3CCOCC3)c2)c2ccc3cccnc3c2NS1(=O)=O", "note": "(centres unmarked) [Example 428, [2-Fluoro-5-(2-methyl-3,3-dioxo-1,2,3,4-tetrahydro-3λ*6*-thia-2,4,5-triaza-phenanthren-1-yl)-phenyl]-morpholin-4-yl-methanone]", "IC50": 2620},
      {"compound": "CN(C)CCNC(=O)c1cc(C2c3ccc4cccnc4c3NS(=O)(=O)N2C)ccc1F", "note": "(centres unmarked) [Example 429, N-(2-Dimethylamino-ethyl)-2-fluoro-5-(2-methyl-3,3-dioxo-1,2,3,4-tetrahydro-3λ*6*-thia-2,4,5-triaza-phenanthren-1-yl)-benzamide]", "IC50": 7460},
      {"compound": "O=S1(=O)Nc2c(ccc3c(-n4cccn4)ccnc23)-c2ccccc21", "note": "[Example 494, 1-Pyrazol-1-yl-5H-6-thia-4,5-diaza-chrysene 6,6-dioxide]", "IC50": 3530},
      {"compound": "CN(C)c1ccc2c(c1)-c1ccc3cccnc3c1NS2(=O)=O", "note": "[Example 502, (6,6-Dioxo-5,6-dihydro-6λ*6*-thia-4,5-diaza-chrysen-9-yl)-dimethyl-amine]", "IC50": 910},
      {"compound": "O=S1(=O)Nc2c(cc(Cl)c3cccnc23)-c2cc(N3CCC(O)CC3)ccc21", "note": "[Example 504, 1-(12-Chloro-6,6-dioxo-5,6-dihydro-6λ*6*-thia-4,5-diaza-chrysen-9-yl)-piperidin-4-ol]", "IC50": 1100},
      {"compound": "CCN(CC)c1ccc2c(c1)-c1cc(Cl)c3cccnc3c1NS2(=O)=O", "note": "[Example 505, (12-Chloro-6,6-dioxo-5,6-dihydro-6λ*6*-thia-4,5-diaza-chrysen-9-yl)-diethyl-amine]", "IC50": 2190},
      {"compound": "O=S1(=O)Nc2c(ccc3cccnc23)-c2cc(N3CCC(O)C3)ccc21", "note": "(centres unmarked) [Example 506, 1-(6,6-Dioxo-5,6-dihydro-6λ*6*-thia-4,5-diaza-chrysen-9-yl)-pyrrolidin-3-ol]", "IC50": 2010},
      {"compound": "COCCNc1ccc2c(c1)-c1cc(Cl)c3cccnc3c1NS2(=O)=O", "note": "[Example 507, (12-Chloro-6,6-dioxo-5,6-dihydro-6λ*6*-thia-4,5-diaza-chrysen-9-yl)-(2-methoxy-ethyl)-amine]", "IC50": 1980},
      {"compound": "O=S1(=O)Nc2c(cc(Cl)c3cccnc23)-c2cc(N3CCOCC3)ccc21", "note": "[Example 509, 12-Chloro-9-morpholin-4-yl-5H-6-thia-4,5-diaza-chrysene 6,6-dioxide]", "IC50": 1620},
      {"compound": "O=S1(=O)Nc2c(cc(Cl)c3cccnc23)-c2cc(NCCN3CCOCC3)ccc21", "note": "[Example 511, (12-Chloro-6,6-dioxo-5,6-dihydro-6λ*6*-thia-4,5-diaza-chrysen-9-yl)-(2-morpholin-4-yl-ethyl)-amine]", "IC50": 620}
    ]}
  ]
}
